Laboratory results reported in patent publication US20250332178A1, “METHODS OF TREATING MYCOBACTERIAL INFECTIONS USING TETRACYCLINE COMPOUNDS” (priority 2018, published 2025).
≈ marks a conversion by molar mass, not a printed value. Where two headings read alike, the source gives them in different places.

How the values were obtained:
Assay in all cases: MIC (CLSI broth dilution), RGM isolates
Assay type in all cases: cell-based
M. fortuitum group = settings: Mycolicibacterium fortuitum
M. immunogenum group = tested on: M. immunogenum group
M. mucogenium group = tested on: M. mucogenium group
M. smegmatis group = settings: Mycolicibacterium smegmatis

SMILES: CC[C@H]1OC(=O)[C@H](C)[C@@H](O[C@H]2C[C@@](C)(OC)[C@@H](O)[C@H](C)O2)[C@H](C)[C@@H](O[C@@H]2O[C@H](C)C[C@H](N(C)C)[C@H]2O)[C@](C)(OC)C[C@@H](C)C(=O)[C@H](C)[C@@H](O)[C@]1(C)O [clarithromycin]
- MIC (M. fortuitum group; 240 h, isolate 27, M. porcinum, extended reading (10 d), read-out: MIC, CLA Extended): > 32 µg/mL
- MIC (M. fortuitum group; 240 h, isolate 28, M. porcinum/M. boenickei, extended reading (10 d), read-out: MIC, CLA Extended): > 32 µg/mL
- MIC (M. fortuitum group; 336 h, isolate 26, M. porcinum, extended reading, up to/including 14 days, read-out: MIC, CLA Extended): > 32 µg/mL
- MIC (M. fortuitum group; 336 h, isolate 30, M. porcinum/M. boenickei, extended reading, up to/including 14 days, read-out: MIC, CLA Extended): > 32 µg/mL
- MIC (M. fortuitum group; 336 h, isolate 31, M. senegalense, extended reading, up to/including 14 days, read-out: MIC, CLA Extended): 0.5 µg/mL (≈ 0.668 µM)
- MIC (M. fortuitum group; 336 h, isolate 32, M. senegalense, extended reading, up to/including 14 days, read-out: MIC, CLA Extended): 0.5 µg/mL (≈ 0.668 µM)
- MIC (M. fortuitum group; 336 h, isolate 33, M. senegalense, extended reading, up to/including 14 days, read-out: MIC, CLA Extended): 1 µg/mL (≈ 1.34 µM)
- MIC (M. fortuitum group; 336 h, isolate 34, M. senegalense, extended reading, up to/including 14 days, read-out: MIC, CLA Extended): 1 µg/mL (≈ 1.34 µM)
- MIC (M. fortuitum group; isolate 23, M. fortuitum, initial reading, generally 3-4 days, read-out: MIC, CLA Initial): 1 µg/mL (≈ 1.34 µM)
- MIC (M. fortuitum group; isolate 24, M. fortuitum, initial reading, generally 3-4 days, read-out: MIC, CLA Initial): 0.5 µg/mL (≈ 0.668 µM)
- MIC (M. fortuitum group; isolate 25, M. fortuitum, initial reading, generally 3-4 days, read-out: MIC, CLA Initial): 2 µg/mL (≈ 2.67 µM)
- MIC (M. fortuitum group; isolate 26, M. porcinum, initial reading, generally 3-4 days, read-out: MIC, CLA Initial): 0.5 µg/mL (≈ 0.668 µM)
- MIC (M. fortuitum group; isolate 27, M. porcinum, initial reading, generally 3-4 days, read-out: MIC, CLA Initial): 2 µg/mL (≈ 2.67 µM)
- MIC (M. fortuitum group; isolate 28, M. porcinum/M. boenickei, initial reading, generally 3-4 days, read-out: MIC, CLA Initial): 8 µg/mL (≈ 10.7 µM)
- MIC (M. fortuitum group; isolate 29, M. porcinum/M. boenickei, initial reading, generally 3-4 days, read-out: MIC, CLA Initial): 4 µg/mL (≈ 5.35 µM)
- MIC (M. fortuitum group; isolate 30, M. porcinum/M. boenickei, initial reading, generally 3-4 days, read-out: MIC, CLA Initial): 1 µg/mL (≈ 1.34 µM)
- MIC (M. fortuitum group; isolate 31, M. senegalense, initial reading, generally 3-4 days, read-out: MIC, CLA Initial): 0.12 µg/mL (≈ 0.16 µM)
- MIC (M. fortuitum group; isolate 32, M. senegalense, initial reading, generally 3-4 days, read-out: MIC, CLA Initial): 0.12 µg/mL (≈ 0.16 µM)
- MIC (M. fortuitum group; isolate 33, M. senegalense, initial reading, generally 3-4 days, read-out: MIC, CLA Initial): 0.12 µg/mL (≈ 0.16 µM)
- MIC (M. fortuitum group; isolate 34, M. senegalense, initial reading, generally 3-4 days, read-out: MIC, CLA Initial): ≤ 0.06 µg/mL
- MIC (M. immunogenum group; 336 h, isolate 35, M. immunogenum, extended reading, up to/including 14 days, read-out: MIC, CLA Extended): 1 µg/mL (≈ 1.34 µM)
- MIC (M. immunogenum group; 336 h, isolate 36, M. immunogenum, extended reading, up to/including 14 days, read-out: MIC, CLA Extended): 2 µg/mL (≈ 2.67 µM)
- MIC (M. immunogenum group; 336 h, isolate 37, M. immunogenum, extended reading, up to/including 14 days, read-out: MIC, CLA Extended): 2 µg/mL (≈ 2.67 µM)
- MIC (M. immunogenum group; 336 h, isolate 38, M. immunogenum, extended reading, up to/including 14 days, read-out: MIC, CLA Extended): 2 µg/mL (≈ 2.67 µM)
- MIC (M. immunogenum group; isolate 35, M. immunogenum, initial reading, generally 3-4 days, read-out: MIC, CLA Initial): 0.25 µg/mL (≈ 0.334 µM)
- MIC (M. immunogenum group; isolate 36, M. immunogenum, initial reading, generally 3-4 days, read-out: MIC, CLA Initial): 0.12 µg/mL (≈ 0.16 µM)
- MIC (M. immunogenum group; isolate 37, M. immunogenum, initial reading, generally 3-4 days, read-out: MIC, CLA Initial): 1 µg/mL (≈ 1.34 µM)
- MIC (M. immunogenum group; isolate 38, M. immunogenum, initial reading, generally 3-4 days, read-out: MIC, CLA Initial): 0.5 µg/mL (≈ 0.668 µM)
- MIC (M. mucogenium group; 336 h, isolate 39, M. mucogenicum, extended reading, up to/including 14 days, read-out: MIC, CLA Extended): 0.12 µg/mL (≈ 0.16 µM)
- MIC (M. mucogenium group; 336 h, isolate 40, M. mucogenicum, extended reading, up to/including 14 days, read-out: MIC, CLA Extended): 1 µg/mL (≈ 1.34 µM)
- MIC (M. mucogenium group; 336 h, isolate 41, M. mucogenicum, extended reading, up to/including 14 days, read-out: MIC, CLA Extended): 1 µg/mL (≈ 1.34 µM)
- MIC (M. mucogenium group; 336 h, isolate 42, M. mucogenicum, extended reading, up to/including 14 days, read-out: MIC, CLA Extended): 0.12 µg/mL (≈ 0.16 µM)
- MIC (M. mucogenium group; 336 h, isolate 43, M. phocaicum, extended reading, up to/including 14 days, read-out: MIC, CLA Extended): 1 µg/mL (≈ 1.34 µM)
- MIC (M. mucogenium group; 336 h, isolate 44, M. phocaicum, extended reading, up to/including 14 days, read-out: MIC, CLA Extended): 1 µg/mL (≈ 1.34 µM)
- MIC (M. mucogenium group; 336 h, isolate 45, M. phocaicum, extended reading, up to/including 14 days, read-out: MIC, CLA Extended): 1 µg/mL (≈ 1.34 µM)
- MIC (M. mucogenium group; 336 h, isolate 46, M. phocaicum, extended reading, up to/including 14 days, read-out: MIC, CLA Extended): 0.12 µg/mL (≈ 0.16 µM)
- MIC (M. mucogenium group; 336 h, isolate 47, M. phocaicum, extended reading, up to/including 14 days, read-out: MIC, CLA Extended): 0.5 µg/mL (≈ 0.668 µM)
- MIC (M. mucogenium group; 336 h, isolate 48, M. phocaicum, extended reading, up to/including 14 days, read-out: MIC, CLA Extended): 0.5 µg/mL (≈ 0.668 µM)
- MIC (M. mucogenium group; isolate 39, M. mucogenicum, initial reading, generally 3-4 days, read-out: MIC, CLA Initial): ≤ 0.06 µg/mL
- MIC (M. mucogenium group; isolate 40, M. mucogenicum, initial reading, generally 3-4 days, read-out: MIC, CLA Initial): 0.25 µg/mL (≈ 0.334 µM)
- MIC (M. mucogenium group; isolate 41, M. mucogenicum, initial reading, generally 3-4 days, read-out: MIC, CLA Initial): 0.5 µg/mL (≈ 0.668 µM)
- MIC (M. mucogenium group; isolate 42, M. mucogenicum, initial reading, generally 3-4 days, read-out: MIC, CLA Initial): ≤ 0.06 µg/mL
- MIC (M. mucogenium group; isolate 43, M. phocaicum, initial reading, generally 3-4 days, read-out: MIC, CLA Initial): 0.25 µg/mL (≈ 0.334 µM)
- MIC (M. mucogenium group; isolate 44, M. phocaicum, initial reading, generally 3-4 days, read-out: MIC, CLA Initial): 0.25 µg/mL (≈ 0.334 µM)
- MIC (M. mucogenium group; isolate 45, M. phocaicum, initial reading, generally 3-4 days, read-out: MIC, CLA Initial): 0.25 µg/mL (≈ 0.334 µM)
- MIC (M. mucogenium group; isolate 46, M. phocaicum, initial reading, generally 3-4 days, read-out: MIC, CLA Initial): ≤ 0.06 µg/mL
- MIC (M. mucogenium group; isolate 47, M. phocaicum, initial reading, generally 3-4 days, read-out: MIC, CLA Initial): 0.25 µg/mL (≈ 0.334 µM)
- MIC (M. mucogenium group; isolate 48, M. phocaicum, initial reading, generally 3-4 days, read-out: MIC, CLA Initial): 0.12 µg/mL (≈ 0.16 µM)
- MIC (M. smegmatis group; 144 h, isolate 49, M. goodii, extended reading (6 d), read-out: MIC, CLA Extended): > 32 µg/mL
- MIC (M. smegmatis group; isolate 49, M. goodii, initial reading, generally 3-4 days, read-out: MIC, CLA Initial): 16 µg/mL (≈ 21.4 µM)
- MIC (M. smegmatis group; isolate 50, M. wolinskyi, initial reading, generally 3-4 days, read-out: MIC, CLA Initial): > 32 µg/mL
